This test deals with Transient receptor potential cation channel subfamily A member 1 (Homo sapiens) (UniProt O75762). Description: Agonist activity at TRPA1 (unknown origin) at 1000 uM relative to AITC.
Sequence of Transient receptor potential cation channel subfamily A member 1 (Homo sapiens) (O75762 whole entry): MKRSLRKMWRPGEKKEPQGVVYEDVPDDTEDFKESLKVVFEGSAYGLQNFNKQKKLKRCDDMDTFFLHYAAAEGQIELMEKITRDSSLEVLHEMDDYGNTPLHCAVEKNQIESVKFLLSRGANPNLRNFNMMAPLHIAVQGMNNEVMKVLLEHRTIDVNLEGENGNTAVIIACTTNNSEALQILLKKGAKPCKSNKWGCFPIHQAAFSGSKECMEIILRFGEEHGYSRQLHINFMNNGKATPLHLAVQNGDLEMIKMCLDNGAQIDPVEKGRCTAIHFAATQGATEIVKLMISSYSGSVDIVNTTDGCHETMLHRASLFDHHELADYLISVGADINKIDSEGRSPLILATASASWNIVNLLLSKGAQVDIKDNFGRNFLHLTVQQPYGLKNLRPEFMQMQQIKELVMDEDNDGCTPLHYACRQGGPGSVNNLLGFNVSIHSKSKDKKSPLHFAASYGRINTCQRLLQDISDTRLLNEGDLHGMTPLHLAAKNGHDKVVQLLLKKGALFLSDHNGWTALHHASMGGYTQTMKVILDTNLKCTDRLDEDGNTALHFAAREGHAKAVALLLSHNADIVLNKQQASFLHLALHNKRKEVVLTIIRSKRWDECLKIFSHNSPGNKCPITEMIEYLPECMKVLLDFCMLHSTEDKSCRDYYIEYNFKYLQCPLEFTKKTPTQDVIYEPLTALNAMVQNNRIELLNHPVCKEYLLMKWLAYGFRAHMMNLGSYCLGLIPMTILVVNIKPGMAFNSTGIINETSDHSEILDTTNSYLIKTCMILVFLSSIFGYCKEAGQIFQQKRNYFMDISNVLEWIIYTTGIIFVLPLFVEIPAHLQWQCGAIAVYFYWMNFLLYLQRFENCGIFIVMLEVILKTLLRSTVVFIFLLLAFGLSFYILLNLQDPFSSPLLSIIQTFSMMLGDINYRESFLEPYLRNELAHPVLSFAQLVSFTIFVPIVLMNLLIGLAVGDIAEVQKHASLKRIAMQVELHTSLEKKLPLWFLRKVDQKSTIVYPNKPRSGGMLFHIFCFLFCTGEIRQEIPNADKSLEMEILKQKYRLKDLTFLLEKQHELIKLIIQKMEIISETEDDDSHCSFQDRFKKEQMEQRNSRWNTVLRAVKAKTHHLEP
The compound `O=c1cc(-c2ccc(O)cc2)oc2c([C@@H]3O[C@H](CO)[C@@H](O)[C@H](O)[C@H]3O)c(O)cc(O)c12` gave an Activity of 15%. `CCCCCCCCOC(=O)CCC`: the Activity stood at 13%. The value for `CCCCCCCCCC(C)O` (centres undefined) was 16%; that for `CCCCCCCCCC(=O)OC` was 14%. The value for `CCCCCCCCCCC(C)=O` was 13%; that for `CCCCCCCC(=O)OCCC(C)C` was 12%; that for `O=c1ccn([C@@H]2O[C@H](CO)[C@@H](O)[C@H]2O)c(=O)[nH]1` was 11%. On to `CCCCCCCCCCCC(C)=O`, for which the Activity was 13%. Take `CCCCCCCCCCCC(=O)OCC`: the Activity was 15%. For the compound `CCCCCCCC(=O)OCC`, the Activity was determined as 9%. The value for `CCCCCCCC1CCC(=O)O1` (centres undefined) was 27%; that for `CCCCCCCC(=O)CC` was 15%; that for `CCCCCCCCCC(=O)OCCC(C)C` was 13%. The compound `CC(=O)OC(C)C` had an Activity of 10%. Next, `CCCC(=O)OCCc1ccccc1`: 62%; `CCCCC(CC)COC(=O)c1ccccc1O` (centres undefined): 14%; `CCCCCCCCC(=O)OCC`: 12%. In turn, `CCCCCCCCCCO` yielded an Activity of 71%. `CCCCCCCC1CCCC(=O)O1` (centres undefined) showed an Activity of 20%. For `CC(=O)OCC(COC(C)=O)OC(C)=O`, the Activity stood at 17%. Regarding `CCCCCCCCC(C)=O`, the Activity was 11%.

The compound `CCCCCCCCCCCCCC(C)=O` had an Activity of 10%. Consider `CCCCCCCCOC(C)=O`, for which the Activity was found to be 8%.

Take `O=c1cc(-c2ccc(O)cc2)oc2cc(O[C@@H]3O[C@H](CO)[C@@H](O)[C@H](O)[C@H]3O)c([C@@H]3O[C@H](CO)[C@@H](O)[C@H](O)[C@H]3O)c(O)c12`: the Activity stood at 20%. As for `CCCCCCCCC(=O)OC`, the Activity was 39%.

The compound `O=c1c(O[C@@H]2O[C@@H](CO)[C@H](O)[C@H]2O)c(-c2ccc(O)c(O)c2)oc2cc(O)cc(O)c12` yielded an Activity of 41%. `CCCCCCCCCCCCCCCC(=O)OC` registered an Activity of 17%. The value for `C[C@@H]1O[C@@H](O[C@H]2[C@H](Oc3cc(O)c4c(c3)O[C@H](c3ccc(O)cc3)CC4=O)O[C@H](CO)[C@@H](O)[C@@H]2O)[C@H](O)[C@H](O)[C@H]1O` was 20%; that for `CCCCCCCCCCCO` was 20%. Compound `CCCCCC(=O)OCC(C)C` displayed an Activity of 23%. The value for `CC(O)CO` (centres undefined) was 12%; that for `CCCCCCCCCCCCO` was 12%. The value for `CCCCCCCCCCCCCC(=O)OCC` was 17%; that for `Oc1cc(O)c2c(c1)O[C@H](c1ccc(O)c(O)c1)[C@H](O)[C@H]2c1c(O)cc(O)c2c1O[C@H](c1ccc(O)c(O)c1)[C@H](O)C2` was 22%. The value for `CCCCCCCCCCCCCC(=O)O` was 23%; that for `CCCC(=O)OCC(C)C` was 19%; that for `CCOC(=O)c1ccco1` was 12%.

In the case of `CCOC(=O)CC(O)(CC(=O)OCC)C(=O)OCC`, the Activity was 18%. `CC(C)C(=O)OCCc1ccccc1` registered an Activity of 37%. For `OC[C@H]1O[C@H](O[C@H]2[C@H](O)[C@@H](O)[C@@H](O[C@H]3[C@H](O)[C@@H](O)C(O)O[C@@H]3CO)O[C@@H]2CO)[C@H](O)[C@@H](O)[C@@H]1O` (some centres undefined), the Activity came out at 14%. For the compound `CCCCC(CC)CO` (centres undefined), the Activity was found to be 60%.

Compound `CCCCCCCC(=O)OC` came in with an Activity of 33%. Next, `CCCCCCCOC(C)=O`: 8%.

The compound `CCCCCC(=O)OCCC(C)C` showed an Activity of 16%. The value for `C/C=C/C(=O)C1=C(C)C=CCC1(C)C` was 13%. Next, `O=C(O[C@H]1Cc2c(O)cc(O)cc2O[C@@H]1c1ccc(O)c(O)c1)c1cc(O)c(O)c(O)c1`: 15%. The value for `CCCCCCCCCC(C)=O` was 15%; that for `COc1cc(C2OCC3C(c4cc(OC)c(O)c(OC)c4)OCC23)cc(OC)c1O` (centres undefined) was 26%; that for `CCCCCCCCCC(=O)OCC` was 16%.
